Results reported in patent US20260027116A1, “Methods of Treating Chronic Graft-Versus-Host Disease Following Allogeneic Hematopoietic Stem Cell Transplantation” (Kadmon Corporation, LLC, priority 2022, published 2026).

Test system: patients with cGVHD
Settings: Cohort 1 200 mg QD

In the case of `CC(C)NC(=O)COc1cccc(-c2nc(Nc3ccc4[nH]ncc4c3)c3ccccc3n2)c1` [Belumosudil, 2-{3-[4-(1H-indazol-5-ylamino)-2-quinazolinyl]phenoxy}-N-(propan-2-yl) acetamide], the “Rash erythematous: # Events” value is reported as 0, the “Rash erythematous: Affected/At Risk (%)” value is reported as 0/17 (0%) and the “Rash maculo-papular: # Events” value is reported as 2. The “Rash maculo-papular: Affected/At Risk (%)” value was 2/17 (11.76%), the “Rash pustular: # Events” value was 0 and the “Rash pustular: Affected/At Risk (%)” value was 0/17 (0%). For the same compound, the “Rash: # Events” value was 2, the “Rash: Affected/At Risk (%)” value was 1/17 (5.88%) and the “Red blood cells urine positive: # Events” value was 0. The “Red blood cells urine positive: Affected/At Risk (%)” value was 0/17 (0%), the “Renal failure: # Events” value was 0 and the “Renal failure: Affected/At Risk (%)” value was 0/17 (0%). For the same compound, the “Respiratory syncytial virus infection: # Events” value was 0, the “Respiratory syncytial virus infection: Affected/At Risk (%)” value was 0/17 (0%) and the “Respiratory tract infection fungal: # Events” value was 1. For the same compound, the “Respiratory tract infection fungal: Affected/At Risk (%)” value was 1/17 (5.88%), the “Respiratory tract infection: # Events” value was 1 and the “Respiratory tract infection: Affected/At Risk (%)” value was 1/17 (5.88%). The “Restless legs syndrome: # Events” value was 0, the “Restless legs syndrome: Affected/At Risk (%)” value was 0/17 (0%) and the “Rosacea: # Events” value was 0. The “Rosacea: Affected/At Risk (%)” value was 0/17 (0%), the “SAE, No. (%)” value was 5 (29) and the “Sinus pain: # Events” value was 2. The “Sinus pain: Affected/At Risk (%)” value was 2/17 (11.76%), the “Sinusitis: # Events” value was 1 and the “Sinusitis: Affected/At Risk (%)” value was 1/17 (5.88%). For the same compound, the “Skin abrasion: # Events” value was 0, the “Skin abrasion: Affected/At Risk (%)” value was 0/17 (0%) and the “Skin lesion: # Events” value was 0. For the same compound, the “Skin lesion: Affected/At Risk (%)” value was 0/17 (0%), the “Skin papilloma: # Events” value was 1 and the “Skin papilloma: Affected/At Risk (%)” value was 1/17 (5.88%). The “Spinal compression fracture: # Events” value was 1, the “Spinal compression fracture: Affected/At Risk (%)” value was 1/17 (5.88%) and the “Squamous cell carcinoma of skin: # Events” value was 0. The “Squamous cell carcinoma of skin: Affected/At Risk (%)” value was 0/17 (0%), the “Stomatitis: # Events” value was 2 and the “Stomatitis: Affected/At Risk (%)” value was 1/17 (5.88%). For the same compound, the “Superior vena cava syndrome: # Events” value was 0, the “Superior vena cava syndrome: Affected/At Risk (%)” value was 0/17 (0%) and the “TEAE, participants (%)” value was 17 (100%) participants. The “TESAE, participants (%)” value was 5 (29%) participants, the “Tachycardia: # Events” value was 0 and the “Tachycardia: Affected/At Risk (%)” value was 0/17 (0%). For the same compound, the “Tendonitis: # Events” value was 0, the “Tendonitis: Affected/At Risk (%)” value was 0/17 (0%) and the “Testicular pain: # Events” value was 1. For the same compound, the “Testicular pain: Affected/At Risk (%)” value was 1/17 (5.88%), the “Testicular swelling: # Events” value was 1 and the “Testicular swelling: Affected/At Risk (%)” value was 1/17 (5.88%). The “Thoracic spinal stenosis: # Events” value was 1, the “Thoracic spinal stenosis: Affected/At Risk (%)” value was 1/17 (5.88%) and the “Thrombocytopenia: # Events” value was 0. The “Thrombocytopenia: Affected/At Risk (%)” value was 0/17 (0%), the “Thrombocytosis: # Events” value was 1 and the “Thrombocytosis: Affected/At Risk (%)” value was 1/17 (5.88%). For the same compound, the “Tinea pedis: # Events” value was 0, the “Tinea pedis: Affected/At Risk (%)” value was 0/17 (0%) and the “Tooth fracture: # Events” value was 0. The “Tooth fracture: Affected/At Risk (%)” value was 0/17 (0%), the “Total other adverse events: Affected/At Risk (%)” value was 17/17 (100%) and the “Transfusion reaction: # Events” value was 1. For the same compound, the “Transfusion reaction: Affected/At Risk (%)” value was 1/17 (5.88%), the “Tremor: # Events” value was 3 and the “Tremor: Affected/At Risk (%)” value was 2/17 (11.76%). For the same compound, the “Type 2 diabetes mellitus: # Events” value was 1, the “Type 2 diabetes mellitus: Affected/At Risk (%)” value was 1/17 (5.88%) and the “Ulcerative keratitis: # Events” value was 0. For the same compound, the “Ulcerative keratitis: Affected/At Risk (%)” value was 0/17 (0%), the “Upper respiratory tract infection: # Events” value was 16 and the “Upper respiratory tract infection: Affected/At Risk (%)” value was 9/17 (52.94%). The “Upper-airway cough syndrome: # Events” value was 0, the “Upper-airway cough syndrome: Affected/At Risk (%)” value was 0/17 (0%) and the “Urinary retention: # Events” value was 0. The “Urinary retention: Affected/At Risk (%)” value was 0/17 (0%), the “Urinary tract infection: # Events” value was 0 and the “Urinary tract infection: Affected/At Risk (%)” value was 0/17 (0%). The “Urinary tract pain: # Events” value was 0, the “Urinary tract pain: Affected/At Risk (%)” value was 0/17 (0%) and the “Urine output decreased: # Events” value was 1. For the same compound, the “Urine output decreased: Affected/At Risk (%)” value was 1/17 (5.88%), the “Vascular access complication: # Events” value was 0 and the “Vascular access complication: Affected/At Risk (%)” value was 0/17 (0%).
